Reference: patent US8367316B2, “Human gastrointestinal stem cell-derived primary intestinal epithelial cell system and methods of use thereof” (AlfaGene Bioscience, Inc., priority 2009, dated 2013)

Key:
Type in all cases: cell-based, human
HT29 cells = assay: Nitric oxide production after immunostimulation, Griess reaction assay; details: agent alone; LPS (1 μm/ml), IFN-γ (200 u/ml); 24 hours; culture supernatants
Procedure: (§1) Therefore, to gain insight about NO production regulation by intestinal EC, the effects of innate (LPS) and adaptive (IFN-γ) immunostimulatory agents on embodiments of the hGISC cell system derived non-transformed primary epithelial cells (EC) were studied and compared to a colonic adenocarcinoma EC line HT29.
(§2) In another assay for NO, a macrophage cell line MHS served as a positive control. Cells were cultured with/without LPS (1 μm/ml), IFN-γ (200 u/ml), or in combination for 24 hours. Culture supernatants were analyzed for NO content by Griess reaction assay (as mentioned herein).

TLR2 = assay: Regulation of TLR expression by LPS on hGISC-derived primary epithelial cell line (FIG. 18); details: LPS stimulation of HIPEC line, preliminary experiment
[1] = system: hGISC derived primary ECs; assay: Nitric oxide production after immunostimulation, Griess reaction assay; details: agent alone; LPS (1 μm/ml), IFN-γ (200 u/ml); 24 hours; culture supernatants
Source text: as §1
[…] Cell free culture supernatants were collected and analyzed for NO content using a Griess Reaction kit (e.g., Griess Reagent System, Part #TB229) (PROMEGA, Madison, Wis.) in accordance with the manufacturer's instructions.
as §2

TLR6 = assay: Regulation of TLR expression by LPS on hGISC-derived primary epithelial cell line (FIG. 18); details: LPS stimulation of HIPEC line, preliminary experiment
TLR4 = assay: as above; details: LPS stimulation of HIPEC line, preliminary experiment
HIPEC monolayers = assay: Inulin permeability of HIPEC monolayers grown on TransWell filters, with or without pro-inflammatory cytokines; details: cytokine treatment 24 hrs, 3H-labeled Inulin, +/- standard error
Procedure: Intestinal stem cell derived primary epithelial cell mono layers were tested for Inulin permeability.
Confluent monolayers of HIPEC cells were grown on transwell membranes in triplicates. Cells were then treated with or without pro-inflammatory cytokines for 24 hrs. ^3H-labeled Inulin was added to the upper chamber. Aliquots of medium retrieved from the upper and lower chambers were counted.
The % amount of inulin activity transported from the upper to the lower chamber was determined. The results are shown in Table 5 below, along with the standard error.

HIPEC line (A2J1) = assay: Response to inflammatory mediators, IL-8 read-out; details: stimulators at various concentrations
Procedure: Using both IL-8 and MIP-3α read-out procedures, an HIPEC line of the present invention (A2J1) was tested for response to various inflammatory mediators (stimulators). The HIPEC line was compared to a Caco-2 cell line. The following stimulators were used at various concentrations: IL-1β; TNFα; IFNγ; Pam3CSK4 (TLR2); LPS (TLR4); and Flagellin (TLR5).

HIPEC line A2J1 = assay: qPCR of markers for mature phenotype cells in HIPEC line upon cytokine stimulation; details: 1 ng/ml IL-1b or 25 ng/ml TNFα (24 hrs)
Procedure: Using qPCR, the HIPEC line was also tested for various markers for mature phenotype cells, including the following cell subtypes: enteroendocrine; Goblet; Paneth; and enterocyte. The following markers were used, with the corresponding cell subtypes in parentheses: Somatostatin (enteroendocrine); Glucagon (enteroendocrine); Lysozyme (Goblet/Paneth); Defensin 5 (Goblet/Paneth); Trefoil factor 3 (Goblet/Paneth); Mucin 2 (Goblet/Paneth); Sucrose isomaltase (enterocyte); Carbonic anhydrase (enterocyte); Cd×2 promoter (enterocyte); and Guanylate cyclase c (enterocyte). Data from these tests supported a Goblet/secretory differentiation profile for the HIPEC line identified as A2J1 (derived from jejunem tissue).

[2] = Experiment #1, Medium Only 35.5% +/− 5.3
[3] = Experiment #2, Medium Only 41.6% +/− 0.96
[4] = Experiment #3, Medium Only 43.6% +/− 1.16

Molecule: lipopolysaccharide [LPS]
- NO production (HT29 cells): neither LPS nor IFN-γ alone affect NO production
- TLR2 expression (TLR2): upregulated
- NO production [1]: neither LPS nor IFN-γ alone affect NO production
- TLR6 expression (TLR6): upregulated
- TLR4 expression (TLR4): upregulated

Molecule: IFN-γ: interferon; adaptive immunostimulatory agent
- NO production (HT29 cells): neither LPS nor IFN-γ alone affect NO production
- % amount of inulin activity transported from the upper to the lower chamber (HIPEC monolayers; [2]): 36.0% +/− 2.8
- % amount of inulin activity transported from the upper to the lower chamber (HIPEC monolayers; [3]): 42.6% +/− 2.07
- % amount of inulin activity transported from the upper to the lower chamber (HIPEC monolayers; [4]): 42.7% +/− 0.30
- NO production [1]: neither LPS nor IFN-γ alone affect NO production
- IL-8 response (HIPEC line (A2J1)): responsive

Molecule: tumor necrosis factor alpha [TNF-α]
- change in phenotype upon stimulation (HIPEC line A2J1): no change in phenotype
- % amount of inulin activity transported from the upper to the lower chamber (HIPEC monolayers; [2]): 41.2% +/− 0.66
- % amount of inulin activity transported from the upper to the lower chamber (HIPEC monolayers; [3]): 46.6% +/− 1.05
- % amount of inulin activity transported from the upper to the lower chamber (HIPEC monolayers; [4]): 49.0% +/− 1.95
- IL-8 response (HIPEC line (A2J1)): responsive

Molecule: IL-6: pro-inflammatory cytokine
- % amount of inulin activity transported from the upper to the lower chamber (HIPEC monolayers; [2]): 36.5% +/− 0.48
- % amount of inulin activity transported from the upper to the lower chamber (HIPEC monolayers; [3]): 41.8% +/− 0.59

Molecule: IL-1β: pro-inflammatory cytokine; interleukin
- change in phenotype upon stimulation (HIPEC line A2J1): no change in phenotype
- % amount of inulin activity transported from the upper to the lower chamber (HIPEC monolayers; [2]): 43.5% +/− 1.36
- % amount of inulin activity transported from the upper to the lower chamber (HIPEC monolayers; [3]): 50.4% +/− 0.94
- % amount of inulin activity transported from the upper to the lower chamber (HIPEC monolayers; [4]): 54.0% +/− 1.59
- IL-8 response (HIPEC line (A2J1)): responsive

B1: IL-1α: pro-inflammatory cytokine (protein, UniProt P01583 113-271, looked up)
Interleukin-1 alpha: SAPFSFLSNVKYNFMRIIKYEFILNDALNQSIIRANDQYLTAAALHNLDEAVKFDMGAYKSSKDDAKITVILRISKTQLYVTAQDEDQPVLLKEMPEIPKTITGSETNLLFFWETHGTKNYFTSVAHPNLFIATKQDYWVCLAGGPPSITDFQILENQA
- % amount of inulin activity transported from the upper to the lower chamber (HIPEC monolayers; [2]): 40.0% +/− 3.6
- % amount of inulin activity transported from the upper to the lower chamber (HIPEC monolayers; [3]): 47.4% +/− 0.59
- % amount of inulin activity transported from the upper to the lower chamber (HIPEC monolayers; [4]): 50.7% +/− 0.40
